{"source": "patent US20090054414A1", "about": "“Rufinamide for the Treatment of Post-Traumatic Stress Disorder” (SYNOSIA THERAPEUTICS, priority 2007, published 2009)", "key": {"Male OF1/IC mice": {"tested_on": "Male OF1/IC mice", "assay": "modified stress-induced hyperthermia (SIH) test", "type": "in vivo, mouse", "description": "Rufinamide was tested in the modified stress-induced model of anxiety. The stress-induced hyperthermia test in mice is a paradigm developed several years ago to model the expression of autonomic hyperactivity in anxiety (Lecci A, Borsini F, Volterra G, Meli A. (1990) Pharmacological validation of a novel model of anticipatory anxiety in mice. Psychopharmacology; 101:255-61.; Spooren W P, Schoeffter P, Gasparini F, Kuhn R, Gentsch C. (2002) Pharmacological and endocrinological characterisation of stress-induced hyperthermia in singly housed mice using classical and candidate anxiolytics (LY314582, MPEP and NKP608). Eur J Pharmacol; 435:161-70.;Zethof T J J, van der Heyden J A M, Tolboom J B M, Olivier B (1994) Stress-induced hyperthermia in mice: a methodological study. Phys. Behav. 55:109-115.). […] Pharmacol Biochem Behav 72:179-188.\nMale OF1/IC mice (MA205 Tiger code) were obtained several days prior to behavioural testing from Iffa Credo (L'Arbresle, France; 18-20 g) and housed in groups of 15 animals per cage (macrolon cages 42H26H15 cm, Type 4). The animals were individually housed (macrolon cage: 26H21H14 cm, Type 2) 24 h before testing. The day preceding the experiment, all cages were transferred to the testing room—and background noise (radio) was used during the light cycle. Both the animal room and the laboratory were temperature controlled and equipped with artificial illumination (L12:D12; lights on 06:00). Mice always had ad libitum access to water and food (Ecosan, Eberle Nafag A G, Gossau, Schweiz).\nThe test procedure for the modified stress-induced hyperthermia was adapted from van der Heyden et al. (1997). Rectal temperature was measured in each mouse twice, i.e. at t=0 min (T1) and t=+15 min (T2). The difference in temperature (T2-T1) was considered to reflect the stress-induced hyperthermia (SIH). […] In addition, a comparison between T1 in vehicle-treated mice and in animals treated with a given dose of a test-compound was used, to measure whether a test-compound affected body temperature alone.\nRectal temperature was measured to the nearest 0.1° C. by an ELLAB instruments (Copenhagen, Denmark) thermometer Model DM 852 by inserting a lubricated thermistor probe model PRA-22002-A (ELLAB, Copenhagen, Denmark) (2.2 mm diameter) 20 mm into the rectum; the mouse was hand held at the base of the tail during this determination and the thermistor probe was left in place for 15 s.\nAll drugs were made up fresh and dissolved in vehicle (0.5% methylcellulose) and administered per os (p.o.) in a volume of 10 ml/kg.\nAll data was analysed using a one-way analysis of variance (ANOVA) followed where appropriate by Dunnett test of multiple comparisons. The level of significance was set at p<0.05."}, "“intruder” rat": {"tested_on": "“intruder” rat", "assay": "social exploration test in rats", "type": "in vivo", "conditions": "vs vehicle", "text": "There remains a paucity of data investigating the anxiolytic potential of this rufinamide. Therefore the aim of the present study was to test the effect of rufinamide (FIG. 1, chemical structure of rufinamide) with regard to a possible facilitation of social behavior (anxiolytic-like effect) using the social exploration test in rats as a paradigm. The basis of this test is that when an adult “resident” rat is kept in social isolation for two weeks, its natural tendency to establish territorial defensive reactions is increased. […] Male adult Sprague Dawley rats (Ra238, OFA/IC strain, Iffa Credo, France) (“residents”) weighing 350-400 g and young Lister Hooded rats (li/ho, Harlan, The Netherlands) (“intruders”) weighing 100-120 g were used. “Intruders” were housed in pairs and the “residents” were individually housed for two weeks before the test in plastic cages (Macrolon, 42×26×15 cm). All animals lived in a room lit from 6 a.m. until 6 p.m. and had always free access to standard food and water. […]\nPairs consisting of one “intruder” rat and one “resident” rat were assigned at random to one of the experimental or the control groups. […] The duration of active approach behaviors of the “intruder” rat (sniffing, anogenital exploration, nosing, grooming, licking, playing) towards the “resident” was manually registered and cumulatively recorded over a period of 5 minutes. […]"}}}
{"smiles": "NC(=O)c1cn(Cc2c(F)cccc2F)nn1", "note": "[rufinamide, 1-(2,6-difluorobenzyl)-1H-1,2,3-triazole-4-carboxamide]", "values": [{"measurement": "body temperature T2 (15 min after stress)", "setting": "Male OF1/IC mice; first experiment, rufinamide 100 mg/kg p.o., p<0.001", "result": "significant lower body temperature than control animals"}, {"measurement": "SIH response (T2-T1)", "setting": "Male OF1/IC mice; first experiment, rufinamide 3, 10, 30, 100 mg/kg p.o., 60 min before T1, n=12", "result": "only the positive control CDZ (10 mg/kg, p.o.) reversed significantly"}, {"measurement": "dose eliciting a robust reversal of the physiological response to an acute stressor", "setting": "Male OF1/IC mice; p.o.", "result": "> 30", "unit": "mg/kg"}, {"measurement": "doses needed to induce robust anxiolytic-like effects in the SIH paradigm", "setting": "Male OF1/IC mice; p.o.", "result": "100 to 300", "unit": "mg/kg"}, {"measurement": "SIH response (T2-T1)", "setting": "Male OF1/IC mice; pooled data of all 3 experiments, rufinamide 30, 50, 100, 200 and 300 mg/kg p.o.", "result": "significantly attenuated"}, {"measurement": "body temperature T2 (15 min after stress)", "setting": "Male OF1/IC mice; pooled data, rufinamide 25, 50, 100, 200 and 300 mg/kg", "result": "significant lower body temperature than control animals"}, {"measurement": "SIH response (T2-T1)", "setting": "Male OF1/IC mice; second experiment (0.3, 3, 30, 300 mg/kg tested), rufinamide 0.3, 30 and 300 mg/kg p.o. (p<0.05, p<0.01, p<0.001)", "result": "significantly attenuated"}, {"measurement": "body temperature T2 (15 min after stress)", "setting": "Male OF1/IC mice; second experiment, rufinamide at the highest doses (30 and 100 mg/kg, p.o.)", "result": "significant lower body temperature than control animals"}, {"measurement": "SIH response (T2-T1)", "setting": "Male OF1/IC mice; third experiment (25, 50, 100, 200 mg/kg tested), rufinamide 50 (p<0.05), 100 and 200 mg/kg p.o. (p<0.001)", "result": "significantly reduced"}, {"measurement": "body temperature T2 (15 min after stress)", "setting": "Male OF1/IC mice; third experiment, rufinamide 100 and 200 mg/kg p.o.", "result": "significant lower body temperature than control animals"}, {"measurement": "time spent in social contact", "setting": "“intruder” rat; rufinamide 0.3 mg/kg p.o., 1 hour after application", "result": "did not induce any significant change"}, {"measurement": "duration of social contacts of an intruder toward a resident rat", "setting": "“intruder” rat; rufinamide 1, 3, 10, 30 and 100 mg/kg p.o., tested 1 hour after application, 5 min observation", "result": "significantly increased"}]}
